PubChem BioAssay (NCI)
Several values for one entry are separate records, joined by “and”; a condition that tells them apart may be missing. Equal entries are not always repeated.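 Interpolation was linear, between the two tested concentrations surrounding the appropriate level; five concentrations were tested over 48 hours in 96-well plates. GI50 = concentration required for 50% inhibition of growth. The concentration for full growth arrest is given as TGI.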 Where a SMILES comes first, the peptide text is derived from it.

Key:
Test in all cases: inhibition of tumour cell growth, NCI panel, 48 h
DMS 114 small cell lung = system: DMS 114 small cell lung
DLD-1 colon = system: DLD-1 colon
HOP-18 NSCLC = system: HOP-18 NSCLC
KM20L2 colon = system: KM20L2 colon
XF 498 CNS = system: XF 498 CNS
DMS 273 small cell lung = system: DMS 273 small cell lung
786-0 renal = system: 786-0 renal
SNB-78 CNS = system: SNB-78 CNS
SN12K1 renal = system: SN12K1 renal
BT-549 breast = system: BT-549 breast
SR leukemia = system: SR leukemia
MDA-N = system: MDA-N
HS 578T breast = system: HS 578T breast
T-47D breast = system: T-47D breast

In the case of COC(=O)c1ccc(/C=C2\N=C(C)OC2=O)cc1, the TGI (DMS 114 small cell lung) is reported as greater than 100 µM, the TGI (DLD-1 colon) is reported as greater than 100 µM and the TGI (HOP-18 NSCLC) is reported as greater than 100 µM. The TGI (KM20L2 colon) was greater than 100 µM, the TGI (XF 498 CNS) was greater than 100 µM and the TGI (DMS 273 small cell lung) was greater than 100 µM.
In the case of C=CCn1c(=O)n(CC=C)c(=O)n(CC=C)c1=O, the TGI (DMS 114 small cell lung) is reported as greater than 100 µM, the TGI (DLD-1 colon) is reported as greater than 100 µM and the TGI (786-0 renal) is reported as greater than 100 µM. The TGI (HOP-18 NSCLC) was greater than 100 µM, the TGI (KM20L2 colon) was greater than 100 µM and the TGI (SNB-78 CNS) was greater than 100 µM. It also gave a TGI (DMS 273 small cell lung) greater than 100 µM.
For O=C1NC(=O)C(CCO)(c2ccccc2)C(=O)N1, the TGI (DMS 114 small cell lung) was greater than 100 µM, the TGI (DLD-1 colon) was greater than 100 µM and the TGI (SN12K1 renal) was greater than 100 µM. It also gave a TGI (HOP-18 NSCLC) greater than 100 µM, a TGI (KM20L2 colon) greater than 100 µM and a TGI (SNB-78 CNS) greater than 100 µM. The TGI (XF 498 CNS) was greater than 100 µM and the TGI (DMS 273 small cell lung) was greater than 100 µM.
For O=C(c1ccccc1)c1c(-c2ccccc2)[nH]n(-c2ccc([N+](=O)[O-])cc2)c(=O)c1=O, the TGI (BT-549 breast) was 98.8 µM, the TGI (786-0 renal) was greater than 100 µM and the TGI (SR leukemia) was greater than 100 µM. It also gave a TGI (MDA-N) greater than 100 µM, a TGI (HS 578T breast) greater than 100 µM and a TGI (T-47D breast) greater than 100 µM.
Clc1ccc(Cl)c(Nc2ccnc(SCc3ccccc3)n2)c1 gave a TGI (BT-549 breast) greater than 100 µM, a TGI (786-0 renal) greater than 100 µM and a TGI (SR leukemia) greater than 100 µM. It also gave a TGI (MDA-N) greater than 100 µM, a TGI (HS 578T breast) greater than 100 µM and a TGI (T-47D breast) greater than 100 µM.
In the case of Cc1cc(C)cc(C(=N)c2ccccc2Cc2cccc3ccccc23)c1, the TGI (BT-549 breast) is reported as greater than 100 µM, the TGI (786-0 renal) is reported as 31.8 µM and the TGI (SR leukemia) is reported as 41.3 µM. For the same molecule, the TGI (MDA-N) was 54.2 µM, the TGI (HS 578T breast) was 21.7 µM and the TGI (T-47D breast) was 46.3 µM.
CCOC(=O)c1csc(NC(=O)C(C)N2CCCCC2)n1 (configuration not stated) was tested, and the TGI (MDA-N) was greater than 100 µM and the TGI (T-47D breast) was greater than 100 µM.
With COc1ccc(C[N+]23C(CC[C@H]2c2ccccc2)CC[C@H]3c2ccccc2)cc1 (some centres not stated) the TGI (786-0 renal) was greater than 100 µM, the TGI (SR leukemia) was 41.4 µM and the TGI (MDA-N) was 65.4 µM. The TGI (HS 578T breast) was greater than 100 µM and the TGI (T-47D breast) was 61.5 µM.
COc1ccnc2c1C(=O)c1nc3ccccc3c3ccnc-2c13 showed a TGI (BT-549 breast) of 1.44 µM, a TGI (MDA-N) of 0.904 µM and a TGI (HS 578T breast) of 6.44 µM. It also gave a TGI (T-47D breast) of 1.34 µM.
Molecule O=c1c(-c2ccccc2)c(SCCCN2CCN(c3cccc(Cl)c3)CC2)n(-c2ccccc2)c(=S)n1-c1ccccc1 has a TGI (BT-549 breast) greater than 100 µM, a TGI (SR leukemia) greater than 100 µM and a TGI (HS 578T breast) greater than 100 µM.
C[C@H]1[C@H](C)CC[C@]2(C)CC[C@]3(C)C(=C[C@@H](O)[C@@H]4[C@@]5(C)[C@H](O)[C@@H](O)[C@H](O)C(C)(C)[C@@H]5CC[C@]43C)[C@H]12 showed a TGI (BT-549 breast) greater than 100 µM, a TGI (786-0 renal) greater than 100 µM and a TGI (SR leukemia) greater than 100 µM. For the same molecule, the TGI (MDA-N) was greater than 100 µM, the TGI (HS 578T breast) was greater than 100 µM and the GI50 (T-47D breast) was 18.7 µM. The TGI (T-47D breast) was greater than 100 µM.
CCC(C)C(NC(=O)C(CCCCN)NC(=O)C(NC(=O)C(CCC(N)=O)NC(=O)C(N)CCCNC(=N)N)C(C)CC)C(=O)NC(Cc1c[nH]c2ccccc12)C(=O)NC(Cc1ccccc1)C(=O)NC(CCC(N)=O)C(=O)NC(CC(N)=O)C(=O)NC(CCCNC(=N)N)C(=O)NC(CCCNC(=N)N)C(=O)NC(CCSC)C(=O)NC(CCCCN)C(=O)NC(Cc1c[nH]c2ccccc12)C(=O)NC(CCCCN)C(=O)NC(CCCCN)C(=O)N1CCCC1C(=O)NC(C)C(=O)NC(CCCCN)C(=O)NC(CCCNC(=N)N)C(=O)NC(CCCCN)C(=O)NC(CC(C)C)C(=O)NC(Cc1ccccc1)C(=O)NCC(=O)O (configuration not stated) (H-RQIKIWFQNRRMKWKKPAKRKLFG-OH; configuration not given here) was tested, and the TGI (BT-549 breast) was greater than 25 µM, the TGI (786-0 renal) was greater than 25 µM and the TGI (SR leukemia) was greater than 25 µM. For the same molecule, the TGI (MDA-N) was greater than 25 µM and the TGI (HS 578T breast) was greater than 25 µM.
CCCCCC(C[N+]1(C)CCOCC1)C(=O)/C=C/c1ccccc1 (configuration not stated) gave a TGI (DMS 114 small cell lung) of 26 µM, a TGI (DLD-1 colon) of 18 µM and a TGI (786-0 renal) of 4.26 µM. The TGI (HOP-18 NSCLC) was 32.1 µM, the TGI (KM20L2 colon) was 32.9 µM and the TGI (SR leukemia) was 39.1 µM. The TGI (SNB-78 CNS) was 46.9 µM, the TGI (XF 498 CNS) was 28.3 µM and the TGI (DMS 273 small cell lung) was 11.7 µM.
Molecule CN(C)C(=O)OCOC(=O)N(C)C has a TGI (DMS 114 small cell lung) greater than 100 µM, a TGI (DLD-1 colon) greater than 100 µM and a TGI (SN12K1 renal) greater than 100 µM. For the same molecule, the TGI (HOP-18 NSCLC) was greater than 100 µM, the TGI (KM20L2 colon) was greater than 100 µM and the TGI (SNB-78 CNS) was greater than 100 µM. For the same molecule, the TGI (XF 498 CNS) was greater than 100 µM and the TGI (DMS 273 small cell lung) was greater than 100 µM.
Molecule CCCCN1C=CN2c3nc4cc(C)c(C)cc4n3C(C(=O)OC)=C(C(=O)OC)C12 (configuration not stated) has a TGI (DMS 114 small cell lung) greater than 100 µM, a TGI (DLD-1 colon) greater than 100 µM and a TGI (HOP-18 NSCLC) greater than 100 µM. It also gave a TGI (KM20L2 colon) greater than 100 µM, a TGI (SR leukemia) greater than 100 µM and a TGI (SNB-78 CNS) greater than 100 µM. For the same molecule, the TGI (XF 498 CNS) was greater than 100 µM and the TGI (DMS 273 small cell lung) was greater than 100 µM.
For COC(=O)C1OC(Oc2cc(O)c3c(=O)cc(-c4ccc(O)cc4)oc3c2)C(O)C(O)C1O (configuration not stated), the TGI (DMS 114 small cell lung) was greater than 100 µM, the TGI (DLD-1 colon) was greater than 100 µM and the TGI (SN12K1 renal) was greater than 100 µM. For the same molecule, the TGI (HOP-18 NSCLC) was greater than 100 µM, the TGI (KM20L2 colon) was greater than 100 µM and the TGI (SNB-78 CNS) was greater than 100 µM. For the same molecule, the TGI (XF 498 CNS) was greater than 100 µM and the TGI (DMS 273 small cell lung) was greater than 100 µM.
For OCC1OC(n2cnc3c2NC=NC[C@H]3O)C(O)C1O (some centres not stated), the TGI (DMS 114 small cell lung) was greater than 450 µM, the TGI (DLD-1 colon) was greater than 450 µM and the TGI (SN12K1 renal) was greater than 450 µM. For the same molecule, the TGI (HOP-18 NSCLC) was greater than 450 µM, the TGI (KM20L2 colon) was greater than 450 µM and the TGI (SNB-78 CNS) was greater than 450 µM. The TGI (XF 498 CNS) was greater than 450 µM and the TGI (DMS 273 small cell lung) was greater than 450 µM.
CN(C)C(=O)NCCN1CCCCCc2ccccc21 was tested, and the TGI (SR leukemia) was greater than 100 µM, the TGI (MDA-N) was greater than 100 µM and the TGI (HS 578T breast) was greater than 100 µM. For the same molecule, the TGI (T-47D breast) was greater than 100 µM.
CCOC(=O)C(N)CSC(=O)NC (configuration not stated) gave a TGI (DMS 114 small cell lung) of 147 µM, a TGI (BT-549 breast) of 346 µM and a TGI (DLD-1 colon) of 474 µM. It also gave a TGI (786-0 renal) of 201 µM, a TGI (SN12K1 renal) of 112 µM and a TGI (HOP-18 NSCLC) of 686 µM. For the same molecule, the TGI (KM20L2 colon) was 507 µM, the TGI (SR leukemia) was 158 µM and the TGI (MDA-N) was 116 µM. It also gave a TGI (HS 578T breast) of 782 µM, a TGI (XF 498 CNS) of 289 µM and a TGI (T-47D breast) of 773 µM. It also gave a TGI (DMS 273 small cell lung) of 375 µM.
Work on CC1=CC(C2/C(=N/O)C=C(C)CC2(C)C)C(O)C(C)(C)C1 (configuration not stated) yielded a TGI (BT-549 breast) of 32.8 µM, a TGI (786-0 renal) of 31.8 µM and a TGI (MDA-N) of 31.9 µM. It also gave a TGI (HS 578T breast) greater than 100 µM and a TGI (T-47D breast) of 28.1 µM.
With C=C1C(=O)O[C@H]2[C@H]1[C@@H](OC(=O)C=C(C)C)CC1=C[C@@H](C[C@@]3(C)O[C@@H]23)OC1=O the TGI (DLD-1 colon) was 11.8 µM, the GI50 (SN12K1 renal) was 17.6 µM and the TGI (SN12K1 renal) was 21.3 µM and 35.5 µM. The TGI (HOP-18 NSCLC) was 10.2 µM, the GI50 (SNB-78 CNS) was 2.35 µM and 10.6 µM and the TGI (SNB-78 CNS) was 15.1 µM and 40.2 µM. The GI50 (XF 498 CNS) was 2.4 µM, the TGI (XF 498 CNS) was 3.79 µM and 4.51 µM and the GI50 (DMS 273 small cell lung) was 24.7 µM.
